Values quoted from earlier work, collected in patent US20230157963A1, “SOLID ORAL BEADS OF FUNCTIONAL INGREDIENTS AND METHODS OF MAKING THE SAME” (Nulixir Inc., priority 2021, published 2023).

conditions: categorization at pH=7 unless stated otherwise; reference phases water and n-octanol

Compound | log P
COc1cc2c(c(OC)c1OC)-c1c(cc3c(c1OC)OCO3)CC(C)C(C)C2 (single isomer, unassigned; (-)) [(−)-schisandrin B] | ~4
COc1cc(/C=C/c2ccccc2)oc(=O)c1 [5,6-dehydrokawain] | ~2.9
COC1=CC(=O)OC(/C=C/c2ccc(OC)cc2)C1 (stereo not drawn) [5,6-dihydroyangonin] | ~2.5
CC1=C(CO)C(=O)O[C@@H]([C@@H](C)[C@H]2CC[C@H]3[C@@H]4C[C@H](Cl)[C@]5(O)[C@@H](O)C=CC(=O)[C@]5(C)[C@H]4CC[C@]23C)C1 [6a-chloro-5b-hydroxywithaferin A] | ~3.2
COC1=CC(=O)O[C@@H](CCc2ccc3c(c2)OCO3)C1 [7,8-dihydromethysticin] | ~2.2
COc1ccc(CCc2cc(OC)cc(=O)o2)cc1 [7,8-dihydroyangonin] | ~2.9
COc1cc(/C=C\c2ccc(OC)c(O)c2)oc(=O)c1 [11-hydroxyyangonin] | ~2.2
COc1cc2c(c(OC)c1OC)-c1c(cc(OC)c(OC)c1OC)C[C@](C)(O)[C@@H](C)C2 [(+)-schisandrin] | ~5
COc1cc2c(c(OC)c1OC)-c1c(cc(OC)c(OC)c1OC)C[C@H](C)[C@H](C)C2 [(−)-schisandrin A] | ~3.6
COc1c2c(cc3c1-c1c(cc4c(c1OC)OCO4)C[C@H](C)[C@H](C)C3)OCO2 [(−)-schisandrin C] | ~3.5
CC(C)=C[C@@H]1CO[C@]23C[C@]4(CO2)[C@H](CC[C@@H]2[C@@]5(C)CC[C@H](O[C@@H]6OC[C@H](O)[C@H](O[C@@H]7O[C@H](CO)[C@@H](O)[C@H](O)[C@H]7O)[C@H]6O[C@@H]6O[C@@H](CO)[C@H](O)[C@H]6O)C(C)(C)[C@@H]5CC[C@]24C)[C@H]3[C@@]1(C)O [bacopasaponin C] | ~2
CC(C)=C[C@H]1C[C@](C)(O)[C@@H]2[C@H]3CC[C@@H]4[C@@]5(C)CC[C@H](O[C@@H]6OC[C@H](O)[C@H](O[C@@H]7O[C@H](CO)[C@@H](O)[C@H](O)[C@H]7O)[C@H]6O[C@@H]6O[C@@H](CO)[C@H](O)[C@H]6O)C(C)(C)[C@@H]5CC[C@@]4(C)[C@@]34CO[C@@]2(C4)O1 [bacopaside X] | ~2.2
CC(C)=C[C@H]1C[C@](C)(O)[C@H]2[C@H]3CC[C@@H]4[C@@]5(C)CC[C@H](O[C@@H]6O[C@H](CO)[C@@H](O)[C@H](O[C@@H]7O[C@H](CO)[C@@H](O)[C@H](O)[C@H]7O)[C@H]6O[C@@H]6O[C@@H](CO)[C@H](O)[C@H]6O)C(C)(C)[C@@H]5CC[C@@]4(C)[C@@]34CO[C@@]2(C4)O1 [bacoside A3] | ~2.1
CC(C)=CCC[C@](C)(O[C@@H]1O[C@H](CO[C@@H]2O[C@H](CO)[C@@H](O)[C@H](O)[C@H]2O)[C@@H](O)[C@H](O)[C@H]1O)[C@H]1CC[C@]2(C)[C@@H]1[C@H](O)C[C@@H]1[C@@]3(C)CC[C@H](O[C@@H]4O[C@H](CO)[C@@H](O)[C@H](O)[C@H]4O[C@@H]4O[C@H](CO)[C@@H](O)[C@H](O)[C@H]4O)C(C)(C)[C@@H]3CC[C@]12C [ginsenoside rb1] | ~−1
CC(C)=CCC[C@](C)(O[C@@H]1O[C@H](CO)[C@@H](O)[C@H](O)[C@H]1O)[C@H]1CC[C@]2(C)[C@@H]1[C@H](O)C[C@@H]1[C@@]3(C)CC[C@H](O)C(C)(C)[C@@H]3[C@@H](O[C@@H]3O[C@H](CO)[C@@H](O)[C@H](O)[C@H]3O)C[C@]12C [ginsenoside rg1] | ~0.8
COc1ccc(C23C=CC(O)CC2N(C)CC3)cc1OC (stereo not drawn) [mesembrenol] | ~2.4
COc1ccc([C@@]23C=CC(=O)C[C@@H]2N(C)CC3)cc1OC [mesembrenone] | ~1.3
COc1ccc([C@@]23CCC(=O)C[C@@H]2N(C)CC3)cc1OC [mesembrine] | ~1.5
COc1nc2c(c(=O)n1C)n(C)c(=O)n2C [methylliberine] | ~−0.083
CC(=O)OC1C=CC(=O)N(C(=O)CCc2ccccc2)C1 (stereo not drawn) [pipermethystine] | ~1.8
COc1cc([C@H]2Oc3cc(O)c4c(=O)c(O)c(-c5ccc(O)cc5)oc4c3O[C@@H]2CO)ccc1O [rhodiolin] | ~2
OC[C@H]1O[C@@H](OCCc2ccc(O)cc2)[C@H](O)[C@@H](O)[C@@H]1O [rhodosin, salidroside] | ~−1
COc1cc2c(c(OC)c1OC)-c1c(cc(OC)c(OC)c1OC)C[C@](C)(O)[C@@H](C)C2 [schisandrol A] | ~3.4
N#C[C@@]1(O[C@@H]2O[C@H](CO)[C@@H](O)[C@H](O)[C@H]2O)C=C[C@@H](O)C1 [tetraphyllin B] | ~−2.5
(R)-kawain | ~2.7
bacopaside B | ~2.8
hericerin | ~6.4
herinacine A | ~2.5
schisandroside C | ~1.6
tortuosomine | ~3
